Test results as given in PMC3907537, “Evaluation of the Endothelin Receptor Antagonists Ambrisentan, Bosentan, Macitentan, and Sitaxsentan as Hepatobiliary Transporter Inhibitors and Substrates in Sandwich-Cultured Human Hepatocytes” (PLoS ONE, 2014).

Experiments:
Type in all cases: cell-based
[1] = test system: sandwich-cultured human hepatocytes; assay: ERA effect on hepatobiliary disposition of d8-taurocholate (B-CLEAR sandwich culture); details: n = 3 donors; for d8-TCA cellular accumulation (% control) / d8-TCA total accumulation (% control): 2.5 µM d8-TCA, 10 min
Description: (§1) Sandwich-cultured human hepatocytes were obtained from Celsis/IVT (Baltimore, MD) or Life Technologies (Durham, NC). Donors were male (n = 3) and female (n = 1) between the ages of 31 and 62 years old. Hepatic uptake, biliary excretion and in vitro biliary clearance (Clb) were determined using the B-CLEAR® hepatocyte sandwich culture model as described by Liu et al., 1999 [34]. In this system, hepatocytes form functional bile canalicular networks while maintaining the expression and function of key uptake and efflux transporters. The canalicular system of bile pockets remains separate from the cellular culture media due to tight junctions between cells. The integrity of these tight junctions is maintained in the presence of calcium (Plus (+) buffer) while in the absence of calcium (Minus (−) buffer), these tight junctions open and release the contents of the canalicular network into the media.
A dose solution containing 2.5 µM d8-taurocholic acid (d8-TCA) was prepared in Plus (+) Buffer. Co-incubation solutions were prepared by combining d8-TCA dose solution and ERA or rifamycin-SV. Hepatocytes were washed and then conditioned for 10 min in warm Plus (+) or Minus (−) buffer with and without ERA or rifamycin-SV. Pre-incubation solutions were then removed and replaced with dose or co-incubation solutions and incubated for 10 min at 37°C. Following this 10 minute incubation, the dose or co-incubation solutions were removed and the cells were then washed three times with ice-cold Plus (+) buffer. The plates were then frozen at −80°C until processed for bioanalysis.
(§2) Study samples were stored in their original 24-well plates at −80°C until prepared for analysis. A volume of 500 µL of cell lysis solution (70∶30 methanol:water) containing 25 nM internal standard was added to each well and mixed for 20 min of mixing. The volume in each well was then transferred to a 96-well filter plate stacked on a Greiner deep well collection plate. The filter plate/collection plate was then centrifuged at 2000 rcf for 5 min. The filtrate was then evaporated to dryness under nitrogen. Samples were reconstituted in 200 µL of sample diluent (60∶40 methanol:10 mM ammonium acetate, native pH), sealed, and placed on a plate shaker for 15 min. These samples were then transferred to a Whatman 96-well 0.45 µm PVDF filter plate stacked on a Costar 3956 plate (HPLC injection plate), centrifuged at 2000 rcf for 2–3 min, and sealed with a silicon cap mat prior to LC-MS/MS analysis. d8-TCA standard spiking solutions were prepared in 50∶50 methanol:water. For a given lysate standard or control, 10 µL was added to each well of a previously frozen analytical plate. Standards representing 0.5–100 pmoles/well and QC’s at the LLQ and ULQ were prepared. These lysate standards and controls were then further processed as described above for unknown study samples. Prepared samples were filtered and analyzed by LC-MS/MS using a Shimadzu binary HPLC system (Columbia, MD) and tandem mass spectrometry using Thermo Electron TSQ® Quantum Discovery MAX™ (Waltham, MA) with an Ion Max ESI source operating in negative ion electrospray ionization mode. Results for unknowns and QCs were calculated using a standard curve based on an internal standard processing method.
(§3) Data calculations were performed using Microsoft Excel, 2010 with all values reported as mean ± standard deviation (SD). Statistical comparisons across ERA treatments were performed using analysis of variance (ANOVA) with Fisher’s PLSD post hoc analysis (Statview 5.0, SAS Institute, Cary NC); statistical significance was considered to be P<0.05. All mass values were normalized to mg protein by taking the average protein mass in the taurocholate plate determined using a BCA protein assay (Pierce Biotechnology, Rockford, IL). Cellular accumulation determined in Minus (−) buffer (Accumulation Minus (−) Buffer) represents the total mass of analyte inside the hepatocyte at the end of the incubation time period. […]

[2] = test system: sandwich-cultured human hepatocytes; assay: Effect of ERAs on endogenous glycocholic acid (GCA) distribution in sandwich-cultured human hepatocytes; details: 24 h, mean ± standard error, n=3 human livers
Description: as §1
(§4) Incubation solutions containing ERA (1, 10 and 100 µM) were prepared in cell culture medium. On the sixth day of culturing of the sandwich-cultured hepatocytes, cell culture medium was removed from the wells and incubation solutions containing the test ERAs were added to the cells. The cells were incubated with ERA solution for 24 h at 37°C. After the exposure, the incubation solutions were removed and the cells were rinsed with Plus (+) or Minus (−) buffer. The buffer solutions were then removed and the cells were incubated with fresh Plus (+) or Minus (−) buffer for 5 min at 37°C. Following this 5 minute incubation, the buffer solutions were collected and any remaining buffers were removed. The cells were then washed three times with ice-cold Plus (+) buffer and the plates were frozen at −80°C until processed for bioanalysis.
as §2
Statistical comparisons across ERA treatments were performed using analysis of variance (ANOVA) with Fisher’s PLSD post hoc analysis (Statview 5.0, SAS Institute, Cary NC); statistical significance was considered to be P<0.05. All mass values were normalized to mg protein by taking the average protein mass in the taurocholate plate determined using a BCA protein assay (Pierce Biotechnology, Rockford, IL). […]

[3] = test system: sandwich-cultured human hepatocytes; assay: Effect of ERAs on endogenous glycochenodeoxycholic acid (GCDCA) distribution in sandwich-cultured human hepatocytes; details: 24 h, mean ± standard error, n=3 human livers
Description: as §1, with “Donors were male (n = 3) and female (n = 1) between the ages of 31 and 62 years old.” left out
as §4, §2
as §3, with “Statistical” for “Data calculations were performed using Microsoft Excel, 2010 with all values reported as mean ± standard deviation (SD). Statistical”

CCCNS(=O)(=O)Nc1ncnc(OCCOc2ncc(Br)cn2)c1-c1ccc(Br)cc1 [macitentan]
d8-TCA cellular accumulation (% control) ([1]; 33 µM ERA): 42.1±4.5%
d8-TCA total accumulation (% control) ([1]; 33 µM ERA): 23.6±0.5%
d8-TCA biliary efflux (BEI), percent of control ([1]; 33 µM ERA): 72.9±8.0%
d8-TCA in vitro biliary clearance (Clb), percent of control ([1]; 33 µM ERA): 17.2±2.3%
d8-TCA cellular accumulation (% control) ([1]; 100 µM ERA): 6.2±0.5%
d8-TCA total accumulation (% control) ([1]; 100 µM ERA): 4.8±0.2%
d8-TCA in vitro biliary clearance (Clb), percent of control ([1]; 100 µM ERA): 4.3±0.5%
GCA BEI (% Control) ([2]; 1 µM): 96.9 ± 17.6 % Control
GCA Cellular Accumulation (% Control) ([2]; 1 µM): 81.7 ± 10.7 % Control
GCA Medium Concentration (% Control) ([2]; 1 µM): 101.0 ± 3.3 % Control
GCA Total Accumulation (% Control) ([2]; 1 µM): 84.6 ± 12.6 % Control
GCA BEI (% Control) ([2]; 10 µM): 54.9 ± 10.3 % Control
GCA Cellular Accumulation (% Control) ([2]; 10 µM): 62.7 ± 10.5 % Control
GCA Medium Concentration (% Control) ([2]; 10 µM): 88.9 ± 1.8 % Control
GCA Total Accumulation (% Control) ([2]; 10 µM): 46.5 ± 8.3 % Control
GCA BEI (% Control) ([2]; 100 µM): 39.4 ± 12.3 % Control
GCA Cellular Accumulation (% Control) ([2]; 100 µM): 38.1 ± 13.6 % Control
GCA Medium Concentration (% Control) ([2]; 100 µM): 52.6 ± 1.2 % Control
GCA Total Accumulation (% Control) ([2]; 100 µM): 24.7 ± 7.8 % Control
GCDCA BEI (% Control) ([3]; 1 µM): 98.7 ± 14.8 % Control
GCDCA Cellular Accumulation (% Control) ([3]; 1 µM): 88.7 ± 0.8 % Control
GCDCA Medium Concentration (% Control) ([3]; 1 µM): 111.0 ± 9.0 % Control
GCDCA Total Accumulation (% Control) ([3]; 1 µM): 90.0 ± 4.0 % Control
GCDCA BEI (% Control) ([3]; 10 µM): 89.4 ± 14.2 % Control
GCDCA Cellular Accumulation (% Control) ([3]; 10 µM): 52.1 ± 2.6 % Control
GCDCA Medium Concentration (% Control) ([3]; 10 µM): 98.7 ± 10.1 % Control
GCDCA Total Accumulation (% Control) ([3]; 10 µM): 48.9 ± 0.9 % Control
GCDCA BEI (% Control) ([3]; 100 µM): 37.5 ± 21.9 % Control
GCDCA Cellular Accumulation (% Control) ([3]; 100 µM): 11.4 ± 3.2 % Control
GCDCA Medium Concentration (% Control) ([3]; 100 µM): 51.8 ± 7.1 % Control
GCDCA Total Accumulation (% Control) ([3]; 100 µM): 8.38 ± 1.4 % Control
